According to patent publication US5045566A, “Novel imidate insecticides” (ICI Americas Inc., priority 1989, dated 1991):

Tests used:
Type in all cases: in vivo
[1] = tested on: Cabbage Looper [Trichoplusia ni (Hubner)]; test: Cabbage looper leaf dip (CL), 3-5 days; conditions: percent in solution, second-instar larvae
How it was run: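 Steps: dilute compound in 50-50 acetone-water from 0.1% downward; immerse cotyledon pieces 2-3 s and dry; place in humid petri dishes with five second-instar larvae; record mortality at 3-5 days. Dosage-mortality curves yield LC50 as percent in solution.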

[2] = tested on: Black Bean Aphid [Aphis fabae (Scop.)]; test: Black bean aphid spray test on nasturtium (BBA), 48 hours; conditions: percent of test compound in sprayed solution
How it was run: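 LC50, given as percent test compound in the sprayed liquid, was calculated from dosage-mortality curves using concentrations from 0.05% downward. Sprays in 50:50 acetone-water went to runoff on ~5 cm nasturtiums carrying 25-50 aphids of mixed ages, one day after infestation. Deaths were counted 48 h later under greenhouse conditions.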

[3] = tested on: Tobacco Budworm [Heliothis virescens (Fabricius)] larvae; test: Tobacco budworm larvae, contact (TBW-C), 5 days; conditions: percent in solution, second-instar larvae
How it was run: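 Cotton cotyledons dipped 2–3 s in compound in 50-50 acetone-water, dried, then infested with 5 second-instar larvae and held 5 days at high humidity. Mortality scored; LC50 from dosage-mortality curves, expressed as percent compound in solution, concentrations from 0.1% downward.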

[4] = tested on: Tobacco Budworm [Heliothis virescens (Fabricius)] eggs; test: Tobacco budworm eggs (TBW-E); conditions: percent in solution; 2-day old eggs
How it was run: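 Mortality of dipped eggs served as read-out, recorded after untreated controls hatched and began feeding. Treatments used acetone solutions from 0.1% downward, with eggs incubated at 78° F; LC50 is expressed as percent of compound in the solution.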

[5] = tested on: Rice water weevil [Lissorhoptrus oryzophilus (Kuschel)]; test: Rice water weevil topical (RWW), 48 hours; conditions: μg of test compound per weevil, female adults
Method: The compounds in Tables 1 and 2 above were tested for insecticidal activity using the following testing procedures. LC50 values, based on the results of these tests and calculated according to dosage-mortality curves, are expressed in Table 3.
Rice water weevil [Lissorhoptrus oryzophilus (Kuschel)]:
Test compounds were diluted in acetone. Droplets (1 ul) of test solutions were applied to the ventral abdomens of ten female adult weevils. The treated weevils were placed in containers with wet cotton balls and rice foliage. The containers were covered and kept at a temperature of about 25° C. Mortality was recorded after 48 hours. Test concentrations ranged from […] down to that at which 50% mortality occurred. The LC50 values are expressed below in Table 3 under the heading "RWW" in terms of μg of test compound per weevil.

[6] = tested on: Beet Armyworm (Spodoptera exigua); test: Beet armyworm leaf dip (BAW), 5 days; conditions: percent in solution; second-instar larvae; five days
How it was run: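 Sugar beet leaves dipped 2–3 s in compound diluted in 50:50 acetone-water, dried, then infested with five second-instar larvae in humid petri dishes. Mortality scored at 5 days; concentrations from 0.1% downward. LC50 from dosage-mortality curves, expressed as percent compound in solution.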

[7] = tested on: Aster Leafhopper [Macrosteles fascifrens (Stal)]; test: Aster leafhopper on dipped oat seedlings (LH), 48 hours; conditions: percent in solution, adults/nymphs
How it was run: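 Three ~10 cm oat seedlings per cup were dipped 2-3 seconds in 50-50 acetone-water compound solutions, dried, and caged with ten adult/nymph leafhoppers. Mortality was counted after 48 hours at concentrations from 0.05% downward. LC50, as percent compound in solution, came from dosage-mortality curves.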

[8] = tested on: Housefly [Musca domestica]; test: Housefly contact mortality in dishes (HF), 48 hours; conditions: μg of test compound per 25 female flies
How it was run: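 Residual contact test: acetone dilution, 0.01% peanut oil spreader, solvent evaporated; 25 ♀ flies (1-2 d old) per cage; sugar-water plug; 48 h mortality read. LC50 in μg/25 female flies, from dose-mortality curves; top dose 100 μg/25 flies.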

[9] = tested on: Maize weevil [Sitophilus zeamais (Motschulsky)]; test: Maize weevil on dipped corn seeds (MW), 48 hours; conditions: percent in solution, adult weevils
How it was run: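 LC50, given as percent of compound in dipping solution, comes from dosage-mortality curves over concentrations descending from 0.01%. Four corn seeds soaked 2-3 s in 50:50 acetone:water solution were dried and held with 10 adult weevils, about 25° C, mortality read after 48 h.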

| Structure (SMILES) | LC50 CL [1] | LC50 BBA [2] | LC50 TBW C (contact) [3] | LC50 TBW E (eggs) [4] | LC50 RWW [5] | LC50 BAW [6] | LC50 LH [7] | LC50 HF [8] | LC50 MW [9] |
| --- | --- | --- | --- | --- | --- | --- | --- | --- | --- |
| CC(C)C(=Nc1cc(F)cc(F)c1)OCc1cccc(Oc2ccccc2)c1 [Compound 55] | 0.0017% | 0.003% | 0.004% | 0.06% | > 2.5 µg | 0.006% | 0.0005% | > 100 µg |  |
| FC(F)(F)c1cccc(N=C(OCc2cccc(Oc3ccccc3)c2)C(Cl)Cl)c1 [Compound 66, N-(3-Trifluoromethylphenyl)-O-(3-phenoxybenzyl)dichloroacetimidate] | < 0.0025% | 0.0003% |  | 0.06% | > 2.5 µg | 0.0065% | 0.001% | 9.7 µg |  |
| CC(C)C(=Nc1ccc(F)c(Cl)c1)OCc1cccc(Oc2ccccc2)c1 [Compound 81, N-(3-Chloro-4-fluorophenyl)-O-(3-phenoxybenzyl)isobutyrylimidate] | 0.0006% | 0.001% | 0.0009% | 0.007% | > 0.5 µg | 0.003% | 0.0003% | 4 µg | 0.005% |
| CC(C)C(=Nc1ccc(F)c(Cl)c1)OCc1ccc(F)c(Oc2ccccc2)c1 [Compound 82] | 0.00018% | 0.00021% | 0.0008% | 0.006% | 0.086 µg | 0.0025% | 0.0001% | 2.5 µg |  |
| CC(C)C(=Nc1ccc(F)c(Cl)c1)OCc1cccc(Oc2ccc(F)cc2)c1 [Compound 89] | 0.00003% | 0.003% | 0.0005% | 0.04% | > 2.5 µg | 0.009% | 0.001% | 5 µg | 0.005% |
| CC(C)C(=Nc1ccc2c(c1)OCO2)OCc1ccc(F)c(Oc2ccccc2)c1 [Compound 181] | 0.0005% |  | 0.001% | 0.01% | > 2.5 µg | 0.001% |  | 25 µg | 0.005% |
| CC(C)C(=Nc1ccc2c(c1)OC(F)(F)O2)OCc1cccc(Oc2ccc(F)cc2)c1 [Compound 244] | 0.00004% | 0.0006% | 0.00025% | > 0.1% | 0.09 µg | 0.002% |  | 14 µg | 0.0025% |
| CC(C)C(=Nc1ccc2c(c1)OC(F)(F)O2)OCc1cccc(Oc2ccccc2)c1 [Compound 245] | 0.0035% | 0.0003% | 0.0015% | 0.016% | > 2.5 µg | 0.001% |  | 20 µg | 0.006% |
| CC(C)C(=Nc1ccc(F)c(I)c1)OCc1ccc(F)c(Oc2ccc(F)cc2)c1 [Compound 281] | 0.00002% | 0.0003% | 0.00025% | 0.006% | > 2.5 µg | 0.0027% |  | 5 µg | 0.005% |
| CC(C)C(=Nc1ccc2c(c1)OC(F)(F)O2)OCc1ccc(F)c(Oc2ccccc2)c1 [Compound 285] | 0.000075% |  | 0.00017% | 0.005% | 0.13 µg | 0.0006% |  | 36 µg | 0.005% |
| CC(C)C(=Nc1ccc(F)c(F)c1)OCc1ccc(F)c(Oc2ccc(Cl)cc2)c1 [Compound 295] | 0.00004% | 0.0003% | 0.0005% | 0.01% | > 2.5 µg |  | 0.0001% | 7.8 µg | 0.0053% |
| CC(C)C(=Nc1ccc(F)c(C(F)(F)F)c1)OCc1ccc(F)c(Oc2ccccc2)c1 [Compound 300] | 0.0003% | 0.0003% | 0.001% | 0.024% | 0.075 µg |  | 0.00002% | 14 µg | 0.01% |
| CC(C)C(=Nc1ccc(C(F)(F)F)cc1)OCc1ccc(F)c(Oc2ccc(Cl)cc2)c1 [Compound 324] | 0.00014% | 0.0003% | 0.0004% | 0.025% | 0.06 µg | 0.0024% |  | > 100 µg |  |
| CC(C)C(=Nc1ccc(F)cc1)OCc1ccc(F)c(Oc2ccc(Cl)cc2)c1 [Compound 325] | 0.00012% | 0.0001% | 0.0006% | 0.037% | > 2.5 µg | 0.0025% |  | 5 µg |  |
| CC(C)C(=Nc1ccc(F)c(Cl)c1F)OCc1ccc(F)c(Oc2ccc(F)cc2)c1 [Compound 330] | 0.00012% | 0.0001% | 0.00035% | 0.037% | 0.06 µg |  | < 0.05% | 5 µg | 0.001% |
| CC(C)C(=Nc1ccc(F)c(Cl)c1F)OCc1cccc(Oc2ccc(Cl)cc2)c1 [Compound 331] | 0.0002% | > 0.05% | 0.0004% | 0.04% | > 2.5 µg | 0.002% |  | 20 µg |  |
| CC(C)C(=Nc1ccc(F)c(F)c1)OCc1ccc(F)c(Oc2ccccc2)c1 [Compound 336] | 0.00017% | 0.0003% | 0.0005% | 0.02% | > 2.5 µg | 0.001% |  | 3.6 µg | 0.0091% |
| CC(C)C(=Nc1ccc(C(F)(F)F)cc1)OCc1ccc(F)c(Oc2ccccc2)c1 [Compound 337] | 0.0007% | 0.0003% | 0.0005% | 0.008% | 0.067 µg | 0.0005% |  | 21 µg | 0.0053% |
| CC(C)C(=Nc1ccc(F)c(F)c1F)OCc1ccc(F)c(Oc2ccc(F)cc2)c1 [Compound 349] | 0.00007% | > 0.05% | 0.0004% | > 0.1% | > 2.5 µg | > 0.1% |  | 4.9 µg | > 0.01% |
| CC(C)C(=Nc1ccc(F)c(Cl)c1F)OCc1ccc(F)c(Oc2ccccc2)c1 [Compound 451] | 0.0001% | 0.001% | 0.00025% | > 0.1% | 0.065 µg |  | 0.0002% | 3.6 µg | 0.0051% |
| CC(C)C(=Nc1ccc(F)c(Cl)c1)OCc1cccc(Oc2ccc(F)cc2)n1 [Compound 461] | 0.00008% | 0.001% |  | 0.01% | > 2.5 µg | 0.0035% |  | 6 µg | 0.0075% |
